# Tested on: rats in which hyperactivity has been induced using the DEX-CDP mixture
# Test: Y maze test, hyperactivity induced by DEX-CDP mixture (Example 1)
# Assay type: in vivo, rat
# Conditions: for Number of arms visited: median; for Effect on hyperactivity induced by DEX-CDP (in words): hyperactive rats; for Effect on hyperactivity induced by DEX-CDP (in words) / Effect of the compound per se on activity of non-hyperactive control (in words): i.p.; for Effect of the compound per se on activity of non-hyperactive control (in words): non-hyperactive control rats
# Text: An increase in motor activity is a frequent symptom of manic disorders and as a consequence, it is often used as a model of mania in laboratory animals. […] Further, not all activity tests are suitable for observing reproducible hyperactivity.
# Hyperactivity induced in rodents tested in a symmetrical v maze by a mixture of dexamphetamine and chlordiazepoxide (DEX-CDP) has been used by a number of researchers to study the effect of lithium (Cox C. et al., “Lithium attenuates “manic” activity in rats” Nature (1971), vol. 232 p 336-338—Vale A. L. and Ratcliffe F., “Effect of lithium administration on rat brain 5-hydroxyindole levels in a possible animal model of mania” Psychopharamacol. (1987), vol.91 p 352-355), or more recently the effect of the antiepiteptic “Valproate” (Cao B. J. and Peng N. A., “Magnesium valproate attenuates hyperactivity induced by dexamphetamine-chlordiazepoxide mixture in rodents” Eur. J. Pharmacol. (1993), vol. 237, p 177-181).
# Lithium and valproate were also tested and used as reference compounds.
# The animals used were male Sprague-Dawley rats (origin: OFA, IFFA CREDO, Belgium) weighing between 210 and 290 grams. They were placed in stainless steel cages in groups of 8. The day prior to the experiment, they were placed in macrolon cages (4 animals per cage: 38×27×15 centimeters (cm)) with the floor covered with sawdust. The cages were placed in an animal holding chamber provided with air conditioning, illuminated from 0600 hrs to 1800 hrs. Food and water were available “ad libitum”.
# The apparatus used was a Y maze (each arm being 40 cm long and 15 cm wide with 35 cm walls) constructed from grey Plexiglass, located in a faintly illuminated room (Less than 5 Lux at ground level) and used to measure the rats' activity. The activity was estimated by recording the number of entries into the arms of the maze over a five-minute period. A video camera was positioned at a height of one meter above the apparatus and connected to a monitor located in an adjacent room in which an experimenter counted the number of entries into the arms.
# The injection of different compounds into the rats was performed under the following conditions. 12.5 mg/kg of chlordiazepoxide and 1.18 mg/kg of D-amphetamine sulfate were dissolved in a saline solution (0.9%) and administered simultaneously by subcutaneous injection 35 minutes before the test in a volume of 1 ml/kg. 17 and 54 mg/kg of levetiracetam were dissolved in a saline aqueous solution (0.9%) and injected intraperitoneally 30 minutes before the test (table 4). 50, 100 and 200 mg/kg of sodium valproate were dissolved in an aqueous saline solution (0.9%) and injected intraperitoneally 15 minutes before the test (table 2). 2 and 4 milliequivalents (meq) of […] of lithium chloride were dissolved in a saline solution (0.9%) and injected intraperitoneally 215 minutes before the test (table 1). The test drugs were injected in a volume of 5 ml/kg.
# The effects of the different drugs were studied separately. In each experiment, the animals were placed in different groups ([…]) in a random fashion. During the test, each rat was placed in the center of the apparatus and the number of visits into the arms was recorded as an activity index.
# For the results to be properly statistically analyzed, they were expressed as median with the first and third quartile. General comparisons of the statistics were carried out using a Kruskal-Wallis test for the controls and the effect of the compound per se. This test was also used to compare the effect of the (DEX-CDP) mixture, and the effect of the compounds against the hyperactivity induced by the (DEX-CDP) mixture.
Compound,Number of arms visited (DEX-CDP mixture + sodium valproate 50 mg/kg i.p.),Number of arms visited (DEX-CDP mixture + sodium valproate 100 mg/kg i.p.),Number of arms visited (DEX-CDP mixture + sodium valproate 200 mg/kg i.p.),Effect on hyperactivity induced by DEX-CDP (in words),Effect of the compound per se on activity of non-hyperactive control (in words),"Number of arms visited (sodium valproate 50 mg/kg i.p. alone, no mixture)","Number of arms visited (sodium valproate 100 mg/kg i.p. alone, no mixture)","Number of arms visited (sodium valproate 200 mg/kg i.p. alone, no mixture)",Number of arms visited (DEX-CDP mixture + levetiracetam 17 mg/kg i.p.),Number of arms visited (DEX-CDP mixture + levetiracetam 54 mg/kg i.p.),Effect on hyperactivity induced by DEX-CDP (in words) (listed as levetiracetam),"Number of arms visited (levetiracetam 17 mg/kg i.p. alone, no mixture)","Number of arms visited (levetiracetam 54 mg/kg i.p. alone, no mixture)"
"CCCC(CCC)C(=O)[O-].[Na+] [Valproate, sodium valproate]",38,39,20,significantly counteracted hyperactivity at a dose of 200 mg/kg,strong dose dependent hyperactivity,28,34,40,,,,,
"CC[C@@H](C(N)=O)N1CCCC1=O [Levetiracetam, (S)-(−)α-ethyl-2-oxo-1-pyrrolidineacetamide]",,,,significantly counteracted the hyperactivity induced by DEX-CDP at a dose of 54 mg/kg,only a slight hyperactivity at a dose of 17 mg/kg,,,,36,26,normalization to the activity level of the non-hyperactive control rats,31,28
